The text below walks through data of patent publication EP4559923A1, “ANTIHISTAMINE COMPOUND, AND PREPARATION METHOD THEREFOR AND USE THEREOF” (HC Synthetic Pharmaceutical Co., Ltd., priority 2022, dated 2024).

Data set [1] is described as follows: Solubility in water, methanol and isopropanol.
The next data set relates to histamine. The data set can be described thus: Muscle tone of isolated ileal smooth muscle of guinea pigs contracted with histamine. The conditions noted are these: Table 4; relative to tone after adding histamine; x±s, n = 8; 3 min.
Experiment in data set [2]: as above
To be noted: Table 4; 3 minutes after adding 0.05 mL compound at maximum histamine contraction; x±s, n = 8.

The nature of data set [3]: Accelerated stability test. Type of data set: physicochemical. The conditions noted are these: 40°C ± 2°C, relative humidity 75% ± 5%.
The next data set relates to histamine-induced asthma. Description: Antiasthmatic effect on histamine-induced asthma in guinea pigs (latency period). Type of data set: in vivo. The conditions noted are these: 1 mg/kg oral gavage, sixty minutes after administration; histamine hydrochloride spray; no asthma within 8 minutes counted as 8 minutes; X±s, n = 5.
For data set [4], the system named is isolated ileal smooth muscle. The data set can be described thus: Muscle tone of isolated ileal smooth muscle of guinea pigs, compound alone. The conditions noted are these: Table 3, no histamine, X±s, n = 8.

In brackets after ≈: the same amount, converted by molar mass.

For `O=P(O)(O)OCCCCCN1CCC(=C2c3ccc(Cl)cc3CCc3cccnc32)CC1` [Compound IV-7], the “solubility Isopropanol” value in data set [1] (in isopropanol) was 4 mg/mL (≈ 8.39 mM). The “solubility Methanol” value in data set [1] (in methanol) was 27 mg/mL (≈ 56.6 mM). Moreover, the “solubility Water” value in data set [1] (in water) was determined as 287 mg/mL (≈ 602 mM). Further, the “Antispasmodic percentage (%)” value worked out at 66.76±19.32% in the data set with histamine and 31.76±18.66% in data set [4] (relative to tone before adding compound, 5 min). Besides, the “Smooth muscle tone (g) After administration” value stood at 1.15 ± 0.23 g in data set [2] and 1.16 ± 0.27 g in data set [4] (5 minutes after adding the drug). Also, the Content in data set [3] (Month 0) came to 99.6%. The Description entry in data set [3] (Month 0), in data set [3] (Month 1), in data set [3] (Month 2), in data set [3] (Month 3) and in data set [3] (Month 6) was “White powder” each time. Besides, the Related substances is on record as 0.03% in data set [3] (Month 0); 0.06% in data set [3] (Month 1); 0.09% in data set [3] (Month 2); 0.13% in data set [3] (Month 3); 0.28% in data set [3] (Month 6). Besides, the remaining at 730 h in data set [3] (storage 75% relative humidity, Month 1, read-out: Content) was found to be 99.6%. Further, the remaining at 1460 h in data set [3] (storage 75% relative humidity, Month 2, read-out: Content) was 99.5%. For the same molecule, the remaining at 2190 h in data set [3] (storage 75% relative humidity, Month 3, read-out: Content) is 99.5%. For the same molecule, the remaining at 4380 h in data set [3] (storage 75% relative humidity, Month 6, read-out: Content) was determined as 99.3%. Besides, the “Post-administration latency period” value in the data set with histamine-induced asthma was 367.32 ± 53.01 s.
